How the values were obtained:
[1] = biological target: T1, recombinant BACE1 protein (Homo sapiens, UniProt P56817); experiment: BACE1 biochemical FRET based assay - Method 1; conditions: BACE1 1 μg/ml, 120 minutes, 10 μm substrate, pH 5.0; read-out: Biochemical FRET based assay - Method 1 pIC50 (converted)
T1 construct: recombinant BACE1 protein in a final concentration of 1 μg/ml
Description: (§1) BACE1 Biochemical FRET Based Assay
(§2) This assay is a Fluorescence Resonance Energy Transfer Assay (FRET) based assay. The substrate for this assay is an APP derived 13 amino acids peptide that contains the ‘Swedish’ Lys-Met/Asn-Leu mutation of the amyloid precursor protein (APP) beta-secretase cleavage site. This substrate also contains two fluorophores: (7-methoxycoumarin-4-yl) acetic acid (Mca) is a fluorescent donor with excitation wavelength at 320 nm and emission at 405 nm and 2,4-Dinitrophenyl (Dnp) is a proprietary quencher acceptor. […] Upon cleavage by BACE1, the fluorophore Mca is separated from the quenching group Dnp, restoring the full fluorescence yield of the donor. The increase in fluorescence is linearly related to the rate of proteolysis.
Briefly in a 384-well format recombinant BACE1 protein in a final concentration of 1 μg/ml is incubated for 120 minutes at room temperature with 10 μm substrate in incubation buffer (40 mM Citrate buffer pH 5.0, 0.04% PEG, 4% DMSO) in the absence or presence of compound. Next the amount of proteolysis is directly measured by fluorescence measurement at T=0 and T=120 (excitation at 320 nm and emission at 405 nm). Results are expressed in RFU (Relative Fluorescence Units), as difference between T120 and T0.
(§3) A best-fit curve is fitted by a minimum sum of squares method to the plot of % Controlmin versus compound concentration. From this an IC50 value (inhibitory concentration causing 50% inhibition of activity) can be obtained.

[2] = biological target: T2, recombinant BACE2 protein (Homo sapiens, UniProt Q9Y5Z0); experiment: BACE2 biochemical FRET based assay; conditions: BACE2 0.4 μg/nil, 450 minutes, 10 μM substrate, pH 5.0; read-out: Biochemical FRET based assay pIC50 (BACE2) (converted)
T2 construct: recombinant BACE2 protein in a final concentration of 0.4 μg/nil
T2 sequence (Q9Y5Z0 63-518): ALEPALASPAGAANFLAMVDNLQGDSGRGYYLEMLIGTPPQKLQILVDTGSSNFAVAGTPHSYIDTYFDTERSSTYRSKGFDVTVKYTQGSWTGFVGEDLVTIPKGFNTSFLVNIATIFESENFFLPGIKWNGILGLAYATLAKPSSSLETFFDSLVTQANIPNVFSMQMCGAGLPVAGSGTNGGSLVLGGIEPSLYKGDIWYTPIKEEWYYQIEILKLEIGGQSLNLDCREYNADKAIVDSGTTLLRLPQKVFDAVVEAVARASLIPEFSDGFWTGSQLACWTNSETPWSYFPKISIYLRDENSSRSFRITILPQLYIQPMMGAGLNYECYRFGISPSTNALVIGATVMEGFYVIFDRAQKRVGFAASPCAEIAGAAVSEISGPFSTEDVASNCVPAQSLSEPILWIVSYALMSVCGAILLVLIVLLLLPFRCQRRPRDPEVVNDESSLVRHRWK
Description: BACE2 Biochemical FRET Based Assay
as §2, with “assay” for “assay is an APP derived 13 amino acids peptide that”, “the beta-secretase,” for “BACE1,”
Briefly in a 384-well format recombinant BACE2 protein in a final concentration of […] is incubated for 450 minutes at room temperature with 10 μM substrate in incubation buffer (50 mM Citrate buffer pH 5.0, 0.05% PEG, no DMSO) in the absence or presence of compound. Next the amount of proteolysis is directly measured by fluorescence measurement at T=0 and T=450 (excitation at 320 nm and emission at 405 nm). Results are expressed in RFU (Relative Fluorescence Units), as difference between T450 and T0.
as §3

[3] = biological target: T1, recombinant BACE1 protein; experiment: BACE1 biochemical FRET based assay - Method 2; conditions: BACE1 0.04 μg/ml, 450 minutes, 20 μM substrate, pH 5.0; read-out: Biochemical FRET based assay- Method 2 pIC50 (converted)
Description: as §1, §2
Briefly in a 384-well format recombinant BACE1 protein in a final concentration of 0.04 μg/ml is incubated for 450 minutes at room temperature with 20 μM substrate in incubation buffer (50 mM Citrate buffer pH 5.0, 0.05% PEG) in the presence of compound or DMSO. Next the amount of proteolysis is directly measured by fluorescence measurement (excitation at 320 nm and emission at 405 nm) at different incubation times (0, 30, 60, 90, 120 and 450 min). For every experiment a time curve (every 30 min between 0 min and 120 min) is used to determine the time where we find the lowest basal signal of the high control. The signal at this time (Tx) is used to subtract from the signal at 450 min. Results are expressed in RFU, as difference between T450 and Tx.
as §3

[4] = test system: Abeta total produced and secreted by SKNBE2 cells expressing hAPP695; experiment: Cellular αLisa assay in SKNBE2 cells - Abeta total; assay type: cell-based; conditions: Homo sapiens, incubated for 18 hours, read-out: Cellular αLisa assay in SKNBE2 cells Abeta total pIC50 (converted)
Description: (§4) Cellular αLisa Assay in SKNBE2 Cells
(§5) In two αLisa assays the levels of Abeta total and Abeta 1-42 produced and secreted into the medium of human neuroblastoma SKNBE2 cells are quantified. The assay is based on the human neuroblastoma SKNBE2 expressing the wild type Amyloid Precursor Protein (hAPP695). The compounds are diluted and added to these cells, incubated for 18 hours and then measurements of Abeta 1-42 and Abeta total are taken. Abeta total and Abeta 1-42 are measured by sandwich αLisa. αLisa is a sandwich assay using biotinylated antibody AbN/25 attached to streptavidin coated beads and antibody Ab4G8 or cAb42/26 conjugated acceptor beads for the detection of Abeta total and Abeta 1-42 respectively. In the presence of Abeta total or Abeta 1-42, the beads come into close proximity. The excitation of the donor beads provokes the release of singlet oxygen molecules that trigger a cascade of energy transfer in the acceptor beads, resulting in light emission. Light emission is measured after 1 hour incubation (excitation at […] and emission at 615 nm).
as §3

[5] = test system: Abeta 1-42 produced and secreted by SKNBE2 cells expressing hAPP695; experiment: Cellular αLisa assay in SKNBE2 cells - Abeta 42; assay type: cell-based, human; conditions: Homo sapiens, incubated for 18 hours, read-out: Cellular αLisa assay in SKNBE2 cells Abeta 42 pIC50 (converted)
Description: as §4, §5, §3

T1 sequence (P56817 46-501): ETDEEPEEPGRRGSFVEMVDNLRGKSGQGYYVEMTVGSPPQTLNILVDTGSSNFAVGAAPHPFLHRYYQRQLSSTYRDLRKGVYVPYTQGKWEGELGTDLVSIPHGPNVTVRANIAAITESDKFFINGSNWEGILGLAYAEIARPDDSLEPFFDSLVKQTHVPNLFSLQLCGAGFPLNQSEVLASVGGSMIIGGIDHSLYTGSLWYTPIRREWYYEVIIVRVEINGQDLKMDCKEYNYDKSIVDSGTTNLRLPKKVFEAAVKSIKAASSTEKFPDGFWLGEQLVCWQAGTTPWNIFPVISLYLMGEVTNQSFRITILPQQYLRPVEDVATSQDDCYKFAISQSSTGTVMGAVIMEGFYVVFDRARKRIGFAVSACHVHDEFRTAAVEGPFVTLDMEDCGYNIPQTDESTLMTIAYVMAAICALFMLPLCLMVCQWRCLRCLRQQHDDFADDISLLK

SMILES | IC50 [1] | IC50 [2] | melting point | IC50 [3] | IC50 [4] | IC50 [5]
C[C@@]1(c2cc(NC(=O)c3ccc(F)cn3)ccc2F)C[C@@H](C(F)(F)F)CC(N)=N1 [Compound 12] | 51.3 nM | 10.7 nM | 199.22 °C | 15.5 nM | 7.76 nM | 7.59 nM
COc1cnc(C(=O)Nc2cccc([C@]3(C)C[C@H](C(F)(F)F)CC(N)=N3)c2)cn1 [Compound 4, N-{3-[(2S,4S)-6-amino-2-methyl-4-(trifluoromethyl)-2,3,4,5-tetrahydropyridin-2-yl]phenyl}-5-methoxypyrazine-2-carboxamide] | > 30200 nM | > 10000 nM | 138.66 °C | > 10000 nM | 1950 nM | 2340 nM
C[C@@]1(c2cc(NC(=O)c3ccn(C(F)F)n3)ccc2F)C[C@@H](C(F)(F)F)CC(N)=N1 [Compound 13] | 38.9 nM | 3.09 nM | 139.83 °C | 6.17 nM | 24 nM | 22.4 nM
COc1cnc(C(=O)Nc2cccc([C@]3(C)C[C@@H](C(F)(F)F)CC(N)=N3)c2)cn1 [Compound 3, N-{3-[(2S,4R)-6-amino-2-methyl-4-(trifluoromethyl)-2,3,4,5-tetrahydropyridin-2-yl]phenyl}-5-methoxypyrazine-2-carboxamide] | 31.6 nM | 339 nM | 171.93 °C | 25.1 nM | 8.71 nM | 9.55 nM
C[C@@]1(c2cc(NC(=O)c3ccc(C#N)cn3)ccc2F)C[C@@H](C(F)(F)F)CC(N)=N1 [Compound 10] | 36.3 nM | 25.7 nM | 205.8 °C | 3.63 nM | 3.8 nM | 4.27 nM
COc1cnc(C(=O)Nc2ccc(F)c([C@]3(C)C[C@@H](C(F)(F)F)CC(N)=N3)c2)cn1 [Compound 9, N-{3-[(2S,4R)-6-amino-2-methyl-4-(trifluoromethyl)-4,5-dihydro-3H-pyridin-2-yl]-4-fluoro-phenyl]-5-methoxy-pyrazine-2-carboxamide] | 38.9 nM | 67.6 nM |  | 7.59 nM | 5.89 nM | 5.25 nM
C[C@@]1(c2cccc(NC(=O)c3ncc(Cl)cc3F)c2)C[C@@H](C(F)(F)F)CC(N)=N1 [Compound 5, N-[3-[(2S,4R)-6-amino-2-methyl-4-(trifluoromethyl)-4,5-dihydro-3H-pyridin-2-yl]phenyl]-5-chloro-3-fluoro-pyridine-2-carboxamide] | 26.3 nM | 20.9 nM |  | 18.2 nM | 20.9 nM | 24 nM
C[C@@]1(c2cccc(NC(=O)c3ccc(C#N)cn3)c2)C[C@H](C(F)(F)F)CC(N)=N1 [Compound 8, N-[3-[(2S,4S)-6-amino-2-methyl-4-(trifluoromethyl)-4,5-dihydro-3H-pyridin-2-yl]phenyl]-5-cyano-pyridine-2-carboxamide] | 9770 nM | > 10000 nM |  | 6760 nM | 2510 nM | 2290 nM

The remaining lines, values ahead:

IC50 [1] | IC50 [2] | melting point | IC50 [3] | IC50 [4] | IC50 [5] | SMILES
 | > 10000 nM | 165.48 °C | 776 nM |  | 347 nM | COCCOc1cnc(C(=O)Nc2ccc(F)c([C@@]3(C)N=C(N)C[C@H]3C(F)(F)F)c2)cn1 (relative stereo) [Compound 23, (±)-N-[3-[(2S*,3R*)-5-amino-2-methyl-3-(trifluoromethyl)-3,4-dihydropyrrol-2-yl]-4-fluoro-phenyl]-5-(2-methoxyethoxy)pyrazine-2-carboxamide]
 | 537 nM | 207.05 °C | 1150 nM | 240 nM | 251 nM | Cc1nc(C(=O)Nc2ccc(F)c(C3(C)N=C(N)CC3C(F)(F)F)c2)co1 (racemic) [Compound 16, (±)-N-[3-1[(2S*,3R*)-5-amino-2-methyl-3-(trifluoromethyl)-3,4-dihydropyrrol-2-yl]-4-fluoro-phenyl]-2-methyl-oxazole-4-carboxamide]
 |  | 243.4 °C | 324 nM |  |  | CC1(c2cc(NC(=O)c3ccc(Br)cn3)ccc2F)N=C(N)CC1C(F)(F)F (racemic) [Compound 40, (±)-N-[3-[(2S*,3R*)-5-amino-2-methyl-3-(trifluoromethyl)-3,4-dihydropyrrol-2-yl]-4-fluoro-phenyl]-5-bromo-pyridine-2-carboxamide]
 | 933 nM | 184.2 °C | 2400 nM |  | 389 nM | COc1cccnc1Nc1ccc(F)c(C2(C)N=C(N)CC2C(F)(F)F)c1 (racemic) [Compound 21, (+)-N-[3-[(2S*,3R*)-5-amino-2-methyl-3-(trifluoromethyl)-3,4-dihydropyrrol-2-yl]-4-fluoro-phenyl]-3-methoxy-pyridin-2-amine]
 | 912 nM | 240.62 °C | 490 nM | 129 nM | 100 nM | CC1(c2cc(NC(=O)c3ccc(Cl)cn3)ccc2F)N=C(N)CC1C(F)(F)F (racemic) [Compound 15, (±)-N-(3-((2S*,3R*)-5-amino-2-methyl-3-(trifluoromethyl)-3,4-dihydro-2H-pyrrol-2-yl)-4-fluorophenyl)-5-chloropicolinamide]

Reference: US10106524B2, “2,3,4,5-tetrahydropyridin-6-amine and 3,4-dihydro-2H-pyrrol-5-amine compound inhibitors of beta-secretase” (Janssen Pharmaceutica NV, priority 2015, dated 2018)
